Measurements from ChEMBL document CHEMBL1201862, “PubChem BioAssay data set” (2004).
Calls of active or inactive are those of the source.

Experiments:
NADPH oxidase 1 = molecular target: T1, NADPH oxidase 1 (Homo sapiens, UniProt Q9Y5S8); type: functional, cell-based;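 further: Cell-based assay with luminescence read-out, IC50 derived from inhibitor dose-response curves; intracellular ROS from endogenous NOX1 in intact HT29 colon cancer cells; potency of inhibitors that lower the ROS luminescence signal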
T1 sequence (Q9Y5S8 whole entry): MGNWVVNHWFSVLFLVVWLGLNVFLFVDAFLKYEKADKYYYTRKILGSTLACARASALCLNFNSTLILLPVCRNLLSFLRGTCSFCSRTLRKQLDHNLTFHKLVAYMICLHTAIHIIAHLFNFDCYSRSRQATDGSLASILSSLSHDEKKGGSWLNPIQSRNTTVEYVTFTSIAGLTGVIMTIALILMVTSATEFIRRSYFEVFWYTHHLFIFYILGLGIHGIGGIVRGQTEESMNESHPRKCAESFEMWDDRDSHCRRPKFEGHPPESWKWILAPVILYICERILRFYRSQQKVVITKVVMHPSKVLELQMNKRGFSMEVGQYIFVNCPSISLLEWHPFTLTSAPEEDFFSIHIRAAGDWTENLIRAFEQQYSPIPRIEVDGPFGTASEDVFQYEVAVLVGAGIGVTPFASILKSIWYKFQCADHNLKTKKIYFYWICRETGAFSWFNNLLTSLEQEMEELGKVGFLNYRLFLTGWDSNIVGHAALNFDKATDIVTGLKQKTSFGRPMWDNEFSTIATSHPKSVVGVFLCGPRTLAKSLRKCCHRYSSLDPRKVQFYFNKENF

[1] = NIH3T3 cell viability loss – ATP luminescence, mouse fibroblasts, counter-screen, dose response (AID 2010); type: functional, cell-based;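 further: cells exposed to compound for about 90 hours before reading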
[2] = Trypanosoma cruzi growth suppression in host cells – NIH3T3 host cells, beta-gal luminescence, confirmation (AID 2044); type: functional, cell-based;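 further: intracellular parasites grown in NIH/3T3 mouse fibroblasts as host cells; luminescent beta-galactosidase reporter signal from transgenic T. cruzi replicating inside host cells; inhibitors lower the luminescence signal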
[3] = viability loss in THP-1 monocytes – THP-1 cells, cytotoxicity control for Vif-APOBEC3G degradation inhibitor project, dose response (AID 1117359); type: functional; conditions: THP-1
[4] = molecular target: T2, Alkaline phosphatase, tissue-nonspecific isozyme (Homo sapiens, UniProt P05186); test: potency against alkaline phosphatase TNAP – biochemical, luminescent, dose response, SAR follow-up (AID 1056)
T2 sequence (P05186 whole entry): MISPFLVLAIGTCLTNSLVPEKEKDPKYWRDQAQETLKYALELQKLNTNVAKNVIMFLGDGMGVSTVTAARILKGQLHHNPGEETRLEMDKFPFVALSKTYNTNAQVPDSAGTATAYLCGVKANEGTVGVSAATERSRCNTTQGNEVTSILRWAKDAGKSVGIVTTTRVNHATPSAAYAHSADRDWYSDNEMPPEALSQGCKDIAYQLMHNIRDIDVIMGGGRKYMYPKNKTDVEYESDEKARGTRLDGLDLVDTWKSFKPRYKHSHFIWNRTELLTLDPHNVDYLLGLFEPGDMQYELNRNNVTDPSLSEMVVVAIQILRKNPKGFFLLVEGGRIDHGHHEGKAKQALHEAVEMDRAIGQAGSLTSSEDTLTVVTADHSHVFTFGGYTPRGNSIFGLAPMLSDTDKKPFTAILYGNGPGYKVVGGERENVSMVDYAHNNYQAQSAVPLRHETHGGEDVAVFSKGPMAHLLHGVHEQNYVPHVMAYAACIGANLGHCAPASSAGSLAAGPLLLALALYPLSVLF

[5] = molecular target: Glyceraldehyde-3-phosphate dehydrogenase (Homo sapiens, UniProt P04406)
Glyceraldehyde-3-phosphate dehydrogenase, sequence (P04406 whole entry): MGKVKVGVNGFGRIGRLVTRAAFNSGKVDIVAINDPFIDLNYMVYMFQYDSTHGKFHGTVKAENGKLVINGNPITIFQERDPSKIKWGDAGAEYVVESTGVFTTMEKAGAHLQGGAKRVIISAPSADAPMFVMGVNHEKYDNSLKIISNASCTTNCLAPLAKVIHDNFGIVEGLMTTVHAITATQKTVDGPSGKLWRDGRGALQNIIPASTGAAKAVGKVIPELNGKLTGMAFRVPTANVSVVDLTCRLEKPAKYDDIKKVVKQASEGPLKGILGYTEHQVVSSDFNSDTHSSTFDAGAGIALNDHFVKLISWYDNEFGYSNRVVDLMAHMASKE

[6] = HEK-293T cell viability reduction – luminescence, B-cell screen hits, cytotoxicity control for BCR NF-kB inhibitor project, dose response (AID 489021); type: functional, cell-based;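 further: HEK-293T cells carrying an NF-kB luciferase reporter; cells exposed to compound for about 14 hours before viability readout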
[7] = molecular target: DNA dC->dU-editing enzyme APOBEC-3G (Homo sapiens, UniProt Q9HC16); test: Dose Response confirmation of small molecule APOBEC3G DNA Deaminase Inhibitors via a fluorescence-based single-stranded DNA deaminase assay. [Related pubchem assays (depositor defined):AID493012, AID493028]; type: functional
DNA dC->dU-editing enzyme APOBEC-3G, sequence (Q9HC16 whole entry): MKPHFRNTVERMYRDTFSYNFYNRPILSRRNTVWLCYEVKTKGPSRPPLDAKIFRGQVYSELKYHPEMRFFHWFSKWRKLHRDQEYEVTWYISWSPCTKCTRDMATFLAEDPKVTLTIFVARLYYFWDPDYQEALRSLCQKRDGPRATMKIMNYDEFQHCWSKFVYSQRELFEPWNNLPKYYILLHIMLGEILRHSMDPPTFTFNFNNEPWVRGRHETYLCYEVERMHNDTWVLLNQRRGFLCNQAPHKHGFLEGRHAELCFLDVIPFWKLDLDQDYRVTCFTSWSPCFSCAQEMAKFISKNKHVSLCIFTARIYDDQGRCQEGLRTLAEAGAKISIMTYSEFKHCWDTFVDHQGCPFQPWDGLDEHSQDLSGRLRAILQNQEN

[8] = viability loss of HPDE-C7K cells – cell-based, fluorescence, HTS, primary screen (AID 431); type: functional; conditions: Homo sapiens
[9] = HPDE-C7 pancreatic duct cell viability loss – fluorescence, HTS (AID 430); type: functional, cell-based; conditions: Homo sapiens
[10] = molecular target: T3, Rac GTPase-activating protein 1 (Homo sapiens, UniProt Q9H0H5); test: blockers of MgcRacGAP-driven Rac1 GTP hydrolysis – biochemical, ADP Hunter fluorescence, primary and confirmatory, confirmation (AID 624330); type: functional
T3 sequence (Q9H0H5 whole entry): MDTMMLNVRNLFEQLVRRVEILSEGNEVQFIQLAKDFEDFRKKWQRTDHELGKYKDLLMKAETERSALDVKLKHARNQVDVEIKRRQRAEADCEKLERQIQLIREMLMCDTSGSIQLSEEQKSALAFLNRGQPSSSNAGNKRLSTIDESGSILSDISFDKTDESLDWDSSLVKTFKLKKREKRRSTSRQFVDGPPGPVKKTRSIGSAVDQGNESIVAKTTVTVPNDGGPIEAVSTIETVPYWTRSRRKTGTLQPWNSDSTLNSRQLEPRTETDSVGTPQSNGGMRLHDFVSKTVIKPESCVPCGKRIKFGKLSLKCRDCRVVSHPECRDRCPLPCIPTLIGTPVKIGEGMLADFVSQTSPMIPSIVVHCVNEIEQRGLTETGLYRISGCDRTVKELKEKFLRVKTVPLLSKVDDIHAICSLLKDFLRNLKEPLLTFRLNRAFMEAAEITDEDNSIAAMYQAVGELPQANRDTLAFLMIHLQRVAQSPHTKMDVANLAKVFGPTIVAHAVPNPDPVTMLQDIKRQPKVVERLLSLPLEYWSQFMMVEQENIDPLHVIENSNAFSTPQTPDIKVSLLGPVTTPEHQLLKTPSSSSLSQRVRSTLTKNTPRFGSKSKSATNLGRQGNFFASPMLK

Nonstructural protein 1 = Nonstructural protein 1 (Influenza A virus, UniProt Q194T2); type: functional, Influenza A virus (A/California/07/2009(H1N1))
Nonstructural protein 1, sequence (Q194T2 whole entry): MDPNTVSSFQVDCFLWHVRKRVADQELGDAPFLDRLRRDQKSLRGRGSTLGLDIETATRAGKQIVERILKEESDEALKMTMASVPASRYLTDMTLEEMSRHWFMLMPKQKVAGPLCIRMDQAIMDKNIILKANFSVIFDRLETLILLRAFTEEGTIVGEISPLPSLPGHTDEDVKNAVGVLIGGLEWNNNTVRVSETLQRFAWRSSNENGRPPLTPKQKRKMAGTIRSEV

[11] = P. falciparum Dd2 growth inhibitors, dose response, SYBR Green, cherry-picked samples (AID 1159567); type: functional, cell-based
[12] = toxicity to human hepatoma HepG2 cells – cell-based, cherry-picked samples, cytotoxicity control, dose response (AID 1159577); type: functional
[13] = Dd2 malaria parasite growth inhibition potency – SYBR Green, dry powder samples, dose response (AID 1159566); type: functional, cell-based;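 further: potency for growth inhibition with lower SYBR green DNA signal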
[14] = growth inhibition of yeast DHODH-expressing 3D7 parasites – SYBR Green, dry powder samples, dose response (AID 1159570); type: functional, cell-based;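 further: parasite growth measured after 72 hours of compound exposure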
[15] = growth inhibition of PfATP4-mutant resistant parasites – NITD609-resistant line, SYBR Green, dry powder, dose response (AID 1159571); type: functional, cell-based;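 further: parasites synchronized at ring stage by sorbitol before testing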
[16] = toxicity to human HepG2 hepatoma cells – cell-based, plate reader, dry powder samples, cytotoxicity control, dose response (AID 1159569); type: functional;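 further: inhibitor potency with signal falling toward the positive control level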

O=[N+]([O-])c1cccc(/C=N/Nc2c(Cl)cncc2Cl)c1
IC50 (NADPH oxidase 1): > 17 µM (not active)

O=C(O)c1nc(Cl)c(Cl)c(N/N=C/c2ccc(N3CCOCC3)c([N+](=O)[O-])c2)c1Cl
IC50 (NADPH oxidase 1): > 17 µM (not active)

COc1ccc(-c2nc(CN3CCN(Cc4cccc(Cl)c4)CC3)c(C)o2)cc1
EC50 [1]: > 60 µM (not active)
EC50 [2]: < 0.1 µM (active)
EC50 (cells): 0.377 µM (active)

COc1ccc(OC)c(S(=O)(=O)Nc2ccc(O)c3ccccc23)c1
CC50 [3]: 12.8 µM (active)
IC50 [4]: > 100 µM (inactive)
IC50 [5]: > 100 µM (not active)

CCOc1ccc(-c2cc(CCCC(=O)NCc3ccc(C)cc3)no2)cc1
IC50 [6]: > 80 µM (inactive)

O=C(Oc1cccc2ccccc12)c1sc2ccccc2c1Cl
IC50 (NADPH oxidase 1): > 17 µM (not active)

O=C(Oc1ccccc1F)c1sc2ccccc2c1Cl
IC50 (NADPH oxidase 1): > 17 µM (not active)

COc1ccc(O)c(C(=O)C2c3ccccc3C(=O)N2c2ccc(C)cc2)c1 (stereo unspecified)
CC50 [3]: > 40 µM (active)
IC50 [7]: 37.4 µM (active)

CCc1c(C)nc2cc(-c3cc(OC)cc(OC)c3)nn2c1N1CCCC1
EC50 [8]: 13 µM (active)
EC50 [9]: 10.5 µM (active)

COc1ccc(CN2CCCC(CNC(=O)c3ccc(F)cc3)C2)c(C)c1C (stereo unspecified)
EC50 [1]: > 30 µM (not active)
EC50 [2]: < 0.1 µM (active)
EC50 (cells): 0.09 µM (active)

Cc1cc(N(C)C)ccc1N=Nc1ccc(N)cc1
IC50 [10]: 29.3 µM (active)
IC50 [6]: > 80 µM (inactive)
IC50 (Nonstructural protein 1): 21.4 µM (active)

Cc1ccc([C@H]2C(C(=O)O)=CC[C@@H](c3cccc(Cl)c3)N2S(=O)(=O)c2ccc(C)cc2)cc1
CC50 [3]: > 40 µM (active)

N#C[C@H]1[C@H](c2ccc(-c3ccccc3)cc2)[C@H](CO)N1C(=O)Cc1ccncc1
AC50 [11]: 3.05 µM (active)
AC50 [12]: > 36 µM (inactive)

COc1ccccc1C#Cc1ccc([C@H]2[C@@H](C#N)N(C(=O)C3CCC3)[C@H]2CO)cc1
AC50 [13]: 0.51 µM (active)
AC50 [14]: 1.16 µM (active)
AC50 [11]: 1.36 µM (active)
AC50 [15]: 0.795 µM (active)
AC50 [16]: 37.3 µM (active)
AC50 [12]: > 42 µM (inactive)

CO[C@@H]1CN(C)C(=O)c2cc(NC(=O)c3ccc(-c4ccccc4)cc3)ccc2OC[C@@H](C)NC[C@@H]1C
AC50 [11]: 7.25 µM (active)
AC50 [12]: 14.2 µM (active)

COc1ccc2c3c(n(C)c2c1)[C@@H](CO)NCC31CCN(Cc2ccccc2Cl)CC1
AC50 [11]: 2.44 µM (active)
AC50 [12]: 18.3 µM (active)

COc1ccc(C(=O)CC(=O)O)c2c1C=CC(C)(C)O2 [URSINOIC ACID]
EC50 [8]: > 20 µM (not active)
EC50 [9]: > 20 µM (not active)
